In general, EC50 refers to the concentration needed to bring the measured effect to its halfway point. Read a low EC50 as a more potent agent.

The values that follow come from patent publication US8039495B2, “Biphenyl carboxylic acids and bioisosteres as glycogen synthase activators” (Hoffman-La Roche Inc., priority 2009, dated 2011).

The assay concerns glycogen synthase. The assay can be described thus: Glycogen Synthase (GS) Assay. In kind it is biochemical. The note with it: for EC50: compound concentration needed to give 50% maximum activation; for GS SC200: compound concentration needed to stimulate 200% of the enzyme activity. The procedure: Twelve μL per well of substrate solution containing glycogen (4.32 mg/ml), 2.67 mM UDP-glucose, 21.6 mM phospho(enol)pyruvate and 2.7 mM NADH in 30 mM glycylglycine, pH 7.3 buffer was added into a polystyrene 384-well assay plate (BD Biosciences).
Compound solutions (8 μL/well) at various concentrations (0-300 μM) were added to the assay plate (columns 5-24). Compound solution contains 30 mM glycylglycine, pH 7.3, 40 mM KCl, 20 mM MgCl2, 9.2% DMSO, with (columns 15-24) or without (columns 5-14) 20 mM glucose 6-phosphate.
Enzyme solution (12 μL/well) containing glycogen synthase (16.88 μg/ml), pyruvate kinase (0.27 mg/ml), lactate dehydrogenase (0.27 mg/ml) in 50 mM Tris-HCl, pH 8.0, 27 mM DTT and bovine serum albumin (BSA, 0.2 mg/ml) was added to the assay plate (columns 3-24). As a blank control, enzyme solution without glycogen synthase was added into the top half wells of columns 1-2. To the bottom half wells of columns 1-2 were added a known activator, glucose 6-phosphate (at final concentration 5 mM) in addition to the enzyme solution. The reaction mixture was incubated at room temperature. The assay plate was then read for absorbance at 340 nm on an Envision reader every 3 minutes up to a total of 15 minutes.
The enzyme activity (with or without compound) was calculated by the reaction rate and represented by the optical density change (δOD) per minute. Percent stimulation of glycogen synthase activity by a compound at various concentrations was calculated by the following formula: % stimulation=100*Rs/Rt,
Where Rs is the reaction rate of the enzyme in the presence of compound and Rt is the reaction rate of the enzyme in the absence of compound.
SC200 is defined as the compound concentration that is needed to stimulate 200% of the enzyme activity. EC50 is defined as the compound concentration that is needed to give 50% maximum activation.

Molecules are shown by their SMILES.

Regarding `O=C(O)[C@@H]1CCCN1C(=O)c1cccc(COc2ccc(-c3ccc(F)cc3F)cc2)c1` [Example 1, (S)-1-[3-(2′,4′-Difluoro-biphenyl-4-yloxymethyl)-benzoyl]-pyrrolidine-2-carboxylic acid], the EC50 was found to be 120 nM and the “GS SC200” value came out at 0.02 µM.
With `COc1cc(F)c(F)cc1-c1ccc(OCc2cccc(C(=O)N3CCC[C@H]3C(=O)O)c2)cc1` [Example 2, (S)-1-[3-(4′,5′-Difluoro-2′-methoxy-biphenyl-4-yloxymethyl)-benzoyl]-pyrrolidine-2-carboxylic acid], the EC50 is 140 nM and the “GS SC200” value came to 0.02 µM.
For the compound `Cc1cc(F)c(F)cc1-c1ccc(OCc2cccc(C(=O)N3CCC[C@H]3C(=O)O)c2)cc1` [Example 3, (S)-1-[3-(4′,5′-Difluoro-2′-methyl-biphenyl-4-yloxymethyl)-benzoyl]-pyrrolidine-2-carboxylic acid], the midpoint of the response, the EC50, lay at 40 nM and the “GS SC200” value amounted to 0.001 µM.
In the case of `Cc1cc(F)c(F)cc1-c1ccc(OCc2cccc(C(=O)N(C)CC(=O)O)c2)cc1` [Example 4, {[3-(4′,5′-Difluoro-2′-methyl-biphenyl-4-yloxymethyl)-benzoyl]-methyl-amino}-acetic acid], the EC50 is 80 nM and the “GS SC200” value was found to be 0.01 µM.
On the same counts, the results for `CN(CC(=O)NS(C)(=O)=O)C(=O)c1cccc(COc2ccc(-c3cc(F)c(F)cc3F)cc2)c1` [Example 5, N-(2-Methanesulfonylamino-2-oxo-ethyl)-N-methyl-3-(2′,4′,5′-trifluoro-biphenyl-4-yloxymethyl)-benzamide] are 200 nM and 0.07 µM.
For `O=C(c1cccc(COc2ccc(-c3cc(F)c(F)cc3F)cc2)c1)N1CCC[C@H]1c1nnn[nH]1` [Example 6, [(S)-2-(1H-Tetrazol-5-yl)-pyrrolidin-1-yl]-[3-(2′,4′,5′-trifluoro-biphenyl-4-yloxymethyl)-phenyl]-methanone], the EC50 amounted to 2100 nM and the “GS SC200” value worked out at 0.59 µM.
Turning to `COc1cc(F)c(F)cc1-c1ccc(OCc2cccc(C(=O)N(C)CC(=O)O)c2)cc1` [Example 7, {[3-(4′,5′-Difluoro-2′-methoxy-biphenyl-4-yloxymethyl)-benzoyl]-methyl-amino}-acetic acid], the EC50 was determined as 100 nM and the “GS SC200” value was found to be 0.02 µM.
For `COc1cc(F)c(F)cc1-c1ccc(OCc2cccc(C(=O)N(CC(=O)O)C(C)(C)C)c2)cc1` [Example 8, {tert-Butyl-[3-(4′,5′-difluoro-2′-methoxy-biphenyl-4-yloxymethyl)-benzoyl]-amino}-acetic acid], in that order: 200 nM and 0.01 µM.
For `COc1cc(F)c(F)cc1-c1ccc(OCc2nc(C(=O)N(CC(=O)O)C(C)(C)C)cs2)cc1` [Example 9, {tert-Butyl-[2-(4′,5′-difluoro-2′-methoxy-biphenyl-4-yloxymethyl)-thiazole-4-carbonyl]-amino}-acetic acid], in that order: 110 nM and 0.01 µM.
On the same counts, the results for `CN(CC(=O)O)C(=O)c1cccc(COc2ccc(-c3cc(F)c(F)cc3F)cc2)c1` [Example 10, {Methyl-[3-(2′,4′,5′-trifluoro-biphenyl-4-yloxymethyl)-benzoyl]-amino}-acetic acid] are 100 nM and 0.04 µM.
Take `COc1cc(F)c(F)cc1-c1ccc(OCc2cccc(C(=O)N(C)CC(=O)O)c2)cc1F` [Example 11, {Methyl-[3-(2,4′,5′-trifluoro-2′-methoxy-biphenyl-4-yloxymethyl)-benzoyl]-amino}-acetic acid]: the EC50 was 160 nM and the “GS SC200” value was determined as 0.01 µM.
Take `O=C(NS(=O)(=O)C1CC1)c1cccc(COc2ccc(-c3cc(F)c(F)cc3F)cc2)c1` [Example 12, Cyclopropanesulfonic acid 3-(2′,4′,5′-trifluoro-biphenyl-4-yloxymethyl)-benzoylamide]: the EC50 came out at 690 nM and the “GS SC200” value came out at 0.14 µM.
For `COc1cc(F)c(F)cc1-c1ccc(OCc2cc(C(=O)N(C)CC(=O)O)ccc2F)cc1` [Example 13, {[3-(4′,5′-Difluoro-2′-methoxy-biphenyl-4-yloxymethyl)-4-fluoro-benzoyl]-methyl-amino}-acetic acid], the concentration giving a half-maximal response (EC50) stood at 80 nM and the “GS SC200” value worked out at 0.004 µM.
For `CN(CC(=O)O)C(=O)c1cccc(COc2ccc(-c3cc(F)c(F)cc3F)cc2F)c1` [Example 14], a half-maximal effect (EC50) was put at 100 nM and the “GS SC200” value amounted to 0.01 µM.
Consider `COc1cc(F)c(F)cc1-c1ccc(OCc2cccc(C(=O)N3CCC[C@@H]3C(=O)O)c2)cc1` [Example 15, (R)-1-[3-(4′,5′-Difluoro-2′-methoxy-biphenyl-4-yloxymethyl)-benzoyl]-pyrrolidine-2-carboxylic acid], for which the EC50 stood at 220 nM and the “GS SC200” value was 0.05 µM.
